Tests used:
[1] = tested on: mouse neuroblastoma (N2a) cells; assay: Quantitative real-time RT-PCR: mRNA expression of mitochondrial dynamics, biogenesis and synaptic genes; format: cell-based; conditions: N2a cells + Aβ42; Mdivi1 given before (preventive) vs after (curative) Aβ42; mRNA and protein data
Experimental: (§1) Tissue culture: The N2a cells were grown for 3 days in a serum-free medium (1:1 mixture of DMEM and OptiMEM, plus penicillin and streptomycin [Invitrogen, Carlsbad, Calif., USA]) until the cells developed neuronal processes.
Quantitative real-time RT-PCR: Using the reagent TriZol (Invitrogen), total RNA was isolated from cell pellets from the 5 N2a cell groups (FIG. 1). Using primer express software (Applied Biosystems, Carlsbad, Calif., USA), the inventors designed the oligonucleotide primers for the housekeeping genes 3-actin, GAPDH, mitochondrial structural genes, fission genes (Drp1, Fis1), fusion genes (MFN1, MFN2, Opa1), biogenesis genes (PGC1c, Nrf1, Nrf2, TFAM), and synaptic genes (synaptophysin and PSD95) (see Table 1 for primer sequences and amplicon sizes). Using SYBR-Green chemistry-based quantitative real-time RT-PCR, mRNA expressions of the above-mentioned genes were measured, as described by Manczak and Reddy.
The mRNA transcript level was normalized against β-actin and the GAPDH at each dilution. The standard curve was the normalized mRNA transcript level, plotted against the log-value of the input cDNA concentration at each dilution. To compare β-actin, GAPDH, and relative quantification was performed according to the (CT) method (Applied Biosystems). […] The ΔCT-value was obtained by subtracting the average β-actin CT value from the average CT-value of the synaptic mitochondrial ETC genes and the mitochondrial structural genes. The ΔCT of untreated cells was used as the calibrator. The fold change was calculated according to the formula 2^-(Δ ΔCT), where ΔΔCT is the difference between ΔCT and the ΔCT calibrator value. To determine the statistical significance of mRNA expression, the CT value differences between the untreated cells and other experimental groups of cells were used in relation to β-actin normalization. Statistical significance was calculated, using one-way ANOVA.

N2a cells [2] = assay: Cytochrome c oxidase activity; format: cell-based, mouse; conditions: Mdivi1 24 hrs or Aβ42 20 μM 6 hrs alone, vs untreated N2a cells
Experimental: as §1
Cytochrome c oxidase activity: Cytochrome oxidase activity was measured in each of the 5 groups of N2a cells. Enzyme activity was assayed spectrophotometrically using a Sigma Kit (Sigma-Aldrich) following manufacturer's instructions. […] The decrease in absorbance at […] was recorded for 1-min reactions at 10-sec intervals. Cytochrome oxidase activity was measured according to the following formula: mU/mg total mitochondrial protein=(A/min sample−(A/min blank)×1.1 mg protein×21.84). The protein concentrations were determined following the BCA method.

N2a cells [3] = assay: H2O2 production (Amplex Red H2O2 assay); format: cell-based, mouse; conditions: Mdivi1 24 hrs or Aβ42 20 μM 6 hrs alone, vs untreated N2a cells
Experimental: as §1
Mitochondrial functional assays. H2O2 production: Using an Amplex® Red H2O2 assay kit (Molecular Probes, Eugene, Oreg., USA), H2O2 production was measured using cell pellets, as described in Manczak and Reddy. Briefly, H2O2 production was measured in the protein lysates prepared from cell pellets of control untreated N2a cells and 4 treatment groups (FIG. 1). A BCA protein assay kit (Pierce Biotechnology) was used to estimate protein concentration. The reaction mixture contained mitochondrial proteins (μg/μl), Amplex Red reagents (50 μM), horseradish peroxidase (0.1 U/ml), and a reaction buffer (1×). The mixture was incubated at room temperature for 30 minutes, followed by spectrophotometer readings of fluorescence (570 nm). Finally, H2O2 production was determined, using a standard curve equation expressed in nmol/μg mitochondrial protein.

[4] = tested on: mouse neuroblastoma (N2a) cells; assay: Immunoblotting analysis of mitochondrial dynamics, biogenesis and synaptic proteins; format: cell-based; conditions: Mdivi1 24 hrs or Aβ42 20 μM 6 hrs alone, vs untreated N2a cells
Experimental: as §1
Twenty g of protein was resolved from each group of cells on a 4-12% Nu-PAGE gel (Invitrogen). The resolved proteins were transferred to […] (Novax Inc., San Diego, Calif., USA) and were then incubated for 1 hour at room temperature with a blocking buffer (5% dry milk dissolved in a TBST buffer). The PVDF membranes were incubated overnight with primary antibodies (see Table 2) and washed 3 times with a TBST buffer at 10-minute intervals. They were then incubated for 2 hours with appropriate secondary antibodies, followed by 3 additional washes at 10-minute intervals. Mitochondrial and synaptic proteins were detected with cheminilumniscence reagents (Pierce Biotechnology, Rockford, Ill., USA), and the bands from immunoblots were quantified on a Kodak scanner, following manufacturer's instructions (ID Image Analysis Software, Kodak Digital Science, Kennesaw, Ga., USA), and the gel images were analyzed from gel images captured with a Kodak digital science CD camera. The lanes were marked to define the positions and specific regions of the bands. An ID fine-band command was used to locate and to scan the bands in each lane and to record the readings.

N2a cells [5] = assay: Cell viability (MTT assay); format: cell-based, mouse; conditions: Mdivi1 24 hrs or Aβ42 20 μM 6 hrs alone, vs untreated N2a cells
Experimental: as §1
The N2a cells from all 5 groups (4 treatment groups and 1 control group) were harvested, and their cell pellets were collected and used for quantitative real-time RT-PCR, immunoblotting analysis of mitochondrial and synaptic proteins, and mitochondrial functional assays for hydrogen peroxide production, lipid peroxidation, cytochrome c oxidase activity, and MTT determination. Isolated mitochondria from N2a cells from all 5 groups were used to determine mitochondrial ATP as described in Reddy et al..

N2a cells [6] = assay: Lipid peroxidation assay (4-hydroxy-2-nonenol, HNE-His ELISA); format: cell-based, mouse; conditions: Mdivi1 24 hrs or Aβ42 20 μM 6 hrs alone, vs untreated N2a cells
Experimental: as §1
Lipid peroxidation assay: Lipid peroxidates are unstable indicators of oxidative stress in the brain. The final product of lipid peroxidation is 4-hydroxy-2-nonenol (HNE), which was measured in the N2a cell lysates prepared from cell pellets of control and treatment groups. The inventors used an HNE-His ELISA kit (Cell BioLabs, Inc., San Diego, Calif., USA), as described in Manczak and Reddy. Briefly, freshly prepared protein as added to a 96-well protein binding plate and incubated overnight at 4° C. The protein then washed 3 times with a buffer. After the last wash, the anti-HNE-His antibody was added to the protein in the wells, incubated for 2 hours at room temperature, and then washed again 3 times. The samples were then incubated with a secondary antibody conjugated with peroxidase for 2 hours at room temperature, followed by incubation with an enzyme substrate. Optical density was measured (at 450 nm) to quantify the level of HNE.

N2a cell mitochondria = assay: Mitochondrial ATP levels (luciferase bioluminescence); format: cell-based, mouse; conditions: N2a cells; Mdivi1 24 hrs or Aβ42 20 μM 6 hrs alone; vs untreated N2a cells
Experimental: as §1
ATP levels: ATP levels were measured in N2a cell mitochondria from the treatment groups using an ATP determination kit (Molecular Probes). A bioluminescence assay was used, based on the reaction of ATP with recombinant firefly luciferase and its substract luciferin. Luciferase catalyzes the formation of light from ATP and luciferin. It is the emitted light that is linearly related to the concentration of ATP, which is measured with a luminometer. ATP levels were measured from mitochondrial pellets using a standard curve method.

| Molecule | Protective effects against Aβ42, pre-treated vs post-treated cells [1] | Cytochrome oxidase activity (N2a cells [2]) | H2O2 levels (N2a cells [3]) | Drp1 protein level [4] | Fis1 protein level [4] | Mfn1 protein level [4] | Mfn2 protein level [4] | Nrf1 protein level [4] | Nrf2 protein level [4] | Opa1 protein level [4] | PGC1α protein level [4] | PSD95 protein level [4] | Synaptophysin protein level [4] | PSD95 protein level ([4]; listed as Aβ) | Synaptophysin protein level ([4]; listed as Aβ) | Cell viability (N2a cells [5]) | Lipid peroxidation levels (4-hydroxy-2-nonenol) (N2a cells [6]) | Mitochondrial ATP levels (N2a cell mitochondria) |
| --- | --- | --- | --- | --- | --- | --- | --- | --- | --- | --- | --- | --- | --- | --- | --- | --- | --- | --- |
| O=c1c2ccccc2[nH]c(=S)n1-c1cc(O)c(Cl)cc1Cl [water soluble Mdivi1, 3-(2,4-dichloro-5-hydroxyphenyl)-2-thioxo-2,3-dihydroquinazolin-4(1H)-one] | stronger in pre-treated cells than post-treated cells | – | – | – | – | – | – | – | – | – | – | – | – | – | – | – | – | – |
| Aβ42: Aβ42 peptide purchased from Anaspec, used to induce mitochondrial and synaptic toxicity in N2a cells | – | Significantly lower | significantly increased | significantly higher | significantly higher | significantly lower | significantly lower | Significantly lower | Significantly lower | significantly lower | Significantly lower | significantly lower | significantly lower | significantly higher | significantly higher | Significantly lower | Significantly higher | Significantly lower |
